Results from US20180036382A1, “FORMULATIONS FOR ORAL ADMINISTRATION OF ACTIVE AGENTS WITH CONTROLLED ABSORPTION PROFILE” (Entera Bio Ltd., priority 2015, published 2018).

Key:
Assay type in all cases: in vivo, human
[1] = Pharmacokinetic study of oral teriparatide tablet in healthy volunteers (Example 1)
Method: An open label comparative pharmacokinetic study was performed in healthy volunteers over the course of 3 months. Each volunteer received—in each of two visits—the same oral tablet containing 0.75 mg of teriparatide, a recombinant form of parathyroid hormone (1-34).
The formulation was composed of teriparatide (0.75 mg), SNAC (sodium 8-N-(2-hydroxybenzoyl) aminocaprylate), soybean trypsin inhibitor (SBTI) and a small amount of magnesium stearate.
Tablets were administered in the morning after an 8-hour overnight fast and immediately followed by 150 ml of water. At each visit a standard meal was provided 3 hours after drug administration. […] There was a two weeks period between the visits.
(§1) To determine parathyroid hormone (1-34) (PTH(1-34)) concentrations, blood samples (4 ml each) were drawn via an indwelling catheter from the forearm vein at predetermined time points during each visit. The cannula was flushed with 1.5 ml normal saline after each sampling. In addition, to avoid sample dilution, 1 ml of blood was drawn and discarded before the next sample. The blood samples were taken at following times: baseline (predose), 10 minutes, 15 minutes, 20 minutes, 30 minutes, 45 minutes, 60 minutes, 75 minutes, 90 minutes, 105 minutes, 2 hours, 3 hours, 4 hours and 5 hours post-administration. Each blood sample was collected into a single tube containing EDTA (ethylenediaminetetraacetic acid) and placed on ice. Within 15 minutes of blood collection, samples were centrifuged for 10 minutes at 4° C. (2500 rotations per minute) and the plasma was separated and divided into two or three aliquots. Each aliquot was transferred into appropriately labeled polypropylene tubes and stored at approximately −20° C. pending analysis. PTH (1-34) levels were measured using an IDS-iSYS automated assay for the measurement of intact PTH (1-34) in human plasma or serum.

[2] = system: cAMP, a known marker of PTH activity; assay: Plasma cAMP levels after teriparatide administration (marker of PTH activity); settings: FIG. 4
Method: In addition, plasma levels of cAMP, a known marker of PTH activity, were determined in order to confirm biological activity of administered PTH. cAMP plasma levels were measured following oral administration of 680 μg teriparatide or subcutaneous injection of 20 μg teriparatide, as described hereinabove.

[3] = Phase I clinical trial of oral teriparatide formulations, plasma PTH (1-34) versus subcutaneous injection (Example 2)
Method: A Phase I clinical study of exemplary oral formulations comprising teriparatide (parathyroid hormone (1-34)) was conducted at the Hadassah Clinical Research Center. 42 healthy volunteers were included throughout the study.
The formulation was composed of teriparatide (200, 400, 680, 1400 or 1800μ.g), SNAC (sodium 8-N-(2-hydroxybenzoyl) aminocaprylate), soybean trypsin inhibitor and magnesium stearate.
Tablets were administered in the morning after an 8-hour overnight fast and immediately followed by 150 ml of water. At each visit a standard meal was provided 3 hours after drug administration.
as §1, with “hormone” for “hormone (1-34) (PTH(1-34))”, “points.” for “points during each visit.”, “(predose),” for “(predose), 10 minutes,”, “15” for “15 minutes, 20”
Oral administration of teriparatide was performed as described hereinabove at doses of 200, 400, 680, 1400 or 1800 μg. The Cmax of PTH (1-34) for each orally administered dose was compared with the Cmax of PTH (1-34) for subcutaneous injection of 20 μg teriparatide.

## CC[C@H](C)[C@H](NC(=O)[C@H](CCC(=O)O)NC(=O)[C@H](CO)NC(=O)[C@@H](NC(=O)[C@@H](N)CO)C(C)C)C(=O)N[C@@H](CCC(N)=O)C(=O)N[C@@H](CC(C)C)C(=O)N[C@@H](CCSC)C(=O)N[C@@H](Cc1cnc[nH]1)C(=O)N[C@@H](CC(N)=O)C(=O)N[C@@H](CC(C)C)C(=O)NCC(=O)N[C@@H](CCCCN)C(=O)N[C@@H](Cc1cnc[nH]1)C(=O)N[C@@H](CC(C)C)C(=O)N[C@@H](CC(N)=O)C(=O)N[C@@H](CO)C(=O)N[C@@H](CCSC)C(=O)N[C@@H](CCC(=O)O)C(=O)N[C@@H](CCCN=C(N)N)C(=O)N[C@H](C(=O)N[C@@H](CCC(=O)O)C(=O)N[C@@H](Cc1c[nH]c2ccccc12)C(=O)N[C@@H](CC(C)C)C(=O)N[C@@H](CCCN=C(N)N)C(=O)N[C@@H](CCCCN)C(=O)N[C@@H](CCCCN)C(=O)N[C@@H](CC(C)C)C(=O)N[C@@H](CCC(N)=O)C(=O)N[C@@H](CC(=O)O)C(=O)N[C@H](C(=O)N[C@@H](Cc1cnc[nH]1)C(=O)N[C@@H](CC(N)=O)C(=O)N[C@@H](Cc1ccccc1)C(=O)O)C(C)C)C(C)C [teriparatide]
[1]; oral tablet 0.75 mg teriparatide with SNAC, SBTI, magnesium stearate, fasted healthy volunteers, plasma PTH (1-34), one table row per individual subject (A, B, C)
  Cmax after 1st administration: 35 picogram/ml
[1]; oral tablet 0.75 mg teriparatide, FIGS. 1A-1C
  time for parathyroid hormone (1-34) levels to return to baseline levels after tablet administration: ≤ 60 min
[1]; oral tablet 0.75 mg teriparatide, all subjects and administrations, Table 3, FIGS. 1A-1C
  time after administration at which peak concentration (Cmax) occurred: ≤ 20 min
[1]; same oral tablet 0.75 mg teriparatide, second visit two weeks later, plasma PTH (1-34), one table row per individual subject (A, B, C)
  Cmax after 2nd administration: 36 picogram/ml
[2]; oral administration of 680 μg teriparatide, compared with subcutaneous 20 μg
  plasma cAMP levels: increased plasma cAMP levels to a similar degree
[2]; subcutaneous administration of 20 μg teriparatide, compared with oral 680 μg
  plasma cAMP levels: increased plasma cAMP levels to a similar degree
[3]; oral 1800 μg versus subcutaneous 20 μg teriparatide, FIG. 3
  decline of PTH levels following oral administration compared with subcutaneous administration: declined considerably more rapidly
[3]; oral doses 200, 400, 680, 1400 or 1800 μg teriparatide, FIG. 2
  dose dependence of Cmax of PTH (1-34) following oral administration: proportional to the dose
[3]; oral tablets with SNAC, soybean trypsin inhibitor, magnesium stearate, FIG. 2
  oral dose providing a Cmax equivalent to that of subcutaneous administration of 20 μg teriparatide: roughly 750 μg
